One assay deals with T1, BmCRT (calreticulin) (Bombyx mori, UniProt Q7Z1E6).
T1 construct: gene crt
T1 sequence (Q7Z1E6 20-398): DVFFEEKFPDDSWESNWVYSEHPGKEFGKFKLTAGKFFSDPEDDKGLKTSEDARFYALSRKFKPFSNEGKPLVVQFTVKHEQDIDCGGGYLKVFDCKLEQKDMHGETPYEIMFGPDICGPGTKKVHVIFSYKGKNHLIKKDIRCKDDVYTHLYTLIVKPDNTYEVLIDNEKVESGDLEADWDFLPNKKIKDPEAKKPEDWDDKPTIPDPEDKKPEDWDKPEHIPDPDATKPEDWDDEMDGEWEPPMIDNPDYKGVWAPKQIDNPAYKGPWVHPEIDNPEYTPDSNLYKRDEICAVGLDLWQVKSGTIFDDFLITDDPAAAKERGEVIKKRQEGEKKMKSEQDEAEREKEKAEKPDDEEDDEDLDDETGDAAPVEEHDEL
Nature of the assay: SPR (Biacore 8K), multi-cycle kinetics. It is filed as binding. On the technique in general: Surface plasmon resonance follows binding to a sensor surface in real time, without labels.

Assay [1] has as its target BmPDIA5 (protein disulfide isomerase A5). Nature of the assay: SPR (Biacore 8K), multi-cycle kinetics. It is filed as binding, Bombyx mori. The conditions noted are these: 1 × PBSP, 5% DMSO; DA 15.6-250 µmol/L.

Experimental findings from PMC9698323, “Interaction of Destruxin A with Three Silkworm Proteins: BmCRT, BmDPP3, and BmPDIA5” (Molecules, 2022) are described below.

Square brackets hold non-standard residues; d marks the D form. Peptide text beside a SMILES is read from it. dLac(3-vinyl) = C=CC[C@@H](O)C(=O)O; NMeV = CN[C@H](C(=O)O)C(C)C; NMeA = CN[C@@H](C)C(=O)O; βAla = NCCC(=O)O

By Kd is commonly meant the constant that tells how readily two partners part at equilibrium. A lower Kd goes with a tighter complex. Turning to `C=CC[C@H]1OC(=O)CCNC(=O)[C@H](C)N(C)C(=O)[C@H](C(C)C)N(C)C(=O)[C@H]([C@@H](C)CC)NC(=O)[C@@H]2CCCN2C1=O` [DA, Destruxin A] (cyclo([dLac(3-vinyl)]PI[NMeV][NMeA][βAla])), the equilibrium dissociation constant (Kd) at BmCRT (calreticulin) turned out to be 198 µM; in assay [1], 92.6 µM.
